{"source": "patent EP4588921A1", "about": "“FREE BASE CRYSTAL FORM OF POLYCYCLIC COMPOUND OF NITROGEN-CONTAINING HETEROCYCLE, AND PREPARATION METHOD THEREFOR” (Jiangsu Hansoh Pharmaceutical Group Co., Ltd., priority 2022, dated 2024)", "key": {"[1]": {"test": "Solid stability experiment (related substances by HPLC)", "assay_type": "physicochemical", "experimental": "The compound physical and chemical stability at high temperature of 60°C, high humidity of 92.5% RH and both high temperature of 50°C and high humidity of 75% RH of the free base crystal form I and the free base crystal form II were investigated to provide a basis for the storage of the compounds.\nAbout 2 mg of the free base crystal form I and the free base crystal form II were taken respectively, and changes of related substances in the crystal forms at high temperature of 60°C, high humidity of 92.5% RH, and both high temperature of 50°C and high humidity of 75%RH for 7 days and 14 days were investigated. The changes of related substances were calculated by HPLC and the chromatographic peak area normalization method."}, "[2]": {"test": "Hygroscopicity experiment", "assay_type": "physicochemical", "experimental": "The hygroscopicity of the crystal form I and the crystal form II of compound 9 were investigated under different relative humidity to provide a basis for the storage of the compounds.\nThe crystal form I and the crystal form II of compound 9 were placed in saturated water vapor at different relative humidities to allow the compound to reach a dynamic equilibrium with the water vapor, and the percentage of weight gain after moisture absorption of the compound after equilibrium was calculated."}, "[3]": {"test": "Solubility experiments in different media (thermodynamic solubility)", "assay_type": "physicochemical", "settings": "thermodynamic from solid", "description": "The solubility of the free base crystal form I and the free base crystal form II in media such as pH 1.0-8.0 USP buffer, artificial simulated gastric fluid (FaSSGF), fasted-state artificial simulated intestinal fluid (FaSSIF), fed-state artificial simulated intestinal fluid (FeSSIF) and pure water was compared to provide a basis for the evaluation of drugability."}, "[4]": {"test": "PK studies in animals of the free base crystal forms", "assay_type": "in vivo", "settings": "SD rats, plasma; for MRT inf: read-out: MRT 0-∞", "experimental": "The pharmacokinetic of the free base crystal form after a single intravenous administration was studied, and the bioavailability of the free base crystal form I and the free base crystal form II after oral administration were calculated.\nThe free base crystal form I was suspended with 0.5% CMCC-Na aqueous solution, and the free base crystal form […] aqueous solution. After uniformity, the suspensions were administered intragastrically to rats in triplicate at a dosage of 5 mg/kg (30 mg/kg for suspension) for the free base crystal form I and a dosage of 30 mg/kg (suspension) for the free base crystal form II. The free base crystal form I was dissolved with 20% HP-β-CD aqueous solution to obtain a clear solution, and the clear solution was filtered through a filter membrane. The filtered solution was administered via injection to rats in triplicate."}, "[5]": {"settings": "Room temperature, 92.5%RH, 7 days"}, "[6]": {"settings": "Room temperature, 92.5%RH, 14 days"}, "[7]": {"settings": "Sprague-Dawley (SD), rat, 2 mg/kg, IV, 2MPK, 20%HP-B-CD solution"}, "[8]": {"settings": "Sprague-Dawley (SD), rat, iv, 2 mg/kg, 2MPK, 20%HP-B-CD solution"}, "[9]": {"settings": "Sprague-Dawley (SD), rat, po, 5 mg/kg, 5MPK, 0.5%CMC-Na"}, "[10]": {"settings": "Sprague-Dawley (SD), rat, po, 30 mg/kg, 30MPK, 0.5%CMC-Na suspension"}}, "note": "Where two headings read alike, the source gives them in different places.", "data": [{"smiles": "CC(C)(O)c1nc(N2C[C@H]3CN(C(=O)c4c(F)cccc4-c4ncccn4)C[C@H]3C2)ncc1F", "note": "[free base crystal form I, ((3aR,6aS)-5-(5-fluoro-4-(2-hydroxyprop-2-yl)pyrimidin-2-yl)hexahydropyrrolo [3,4-c]pyrrol-2(1H)-yl)(2-fluoro-6-(pyrimidin-2-yl)phenyl)methanone]", "values": [{"measurement": "% Increase in total impurity", "setting": "[1]; 50°C, 75%RH, 7 days", "result": "<0.1", "unit": "%"}, {"measurement": "% Maximum increase in single impurity", "setting": "[1]; 50°C, 75%RH, 7 days", "result": "<0.1", "unit": "%"}, {"measurement": "% Increase in total impurity", "setting": "[1]; 50°C, 75%RH, 14 days", "result": "<0.1", "unit": "%"}, {"measurement": "% Maximum increase in single impurity", "setting": "[1]; 50°C, 75%RH, 14 days", "result": "<0.1", "unit": "%"}, {"measurement": "% Increase in total impurity", "setting": "[1]; 60°C, 7 days", "result": "<0.1", "unit": "%"}, {"measurement": "% Maximum increase in single impurity", "setting": "[1]; 60°C, 7 days", "result": "<0.1", "unit": "%"}, {"measurement": "% Increase in total impurity", "setting": "[1]; 60°C, 14 days", "result": "<0.1", "unit": "%"}, {"measurement": "% Maximum increase in single impurity", "setting": "[1]; 60°C, 14 days", "result": "<0.1", "unit": "%"}, {"measurement": "% Increase in total impurity", "setting": "[1]; [5]", "result": "<0.1", "unit": "%"}, {"measurement": "% Maximum increase in single impurity", "setting": "[1]; [5]", "result": "<0.1", "unit": "%"}, {"measurement": "% Increase in total impurity", "setting": "[1]; [6]", "result": "<0.1", "unit": "%"}, {"measurement": "% Maximum increase in single impurity", "setting": "[1]; [6]", "result": "<0.1", "unit": "%"}, {"measurement": "change in the XRPD pattern (crystal form transformation)", "setting": "[2]; after 2 cycles of moisture absorption and desorption at 0%-95% relative humidity", "result": "no change in the XRPD pattern"}, {"measurement": "weight gain after moisture absorption", "setting": "[2]; at 80%RH", "result": "about 0.3263%"}, {"measurement": "solubility at 2 h", "setting": "[3]; FaSSCoF, 37 °C, fassgf or other biorelevant, FaSSCoF, read-out: Solubility of free base crystal form I", "result": 118, "unit": "µg/mL"}, {"measurement": "solubility at 2 h", "setting": "[3]; FaSSGF (artificial simulated gastric fluid), 37 °C, fassgf or other biorelevant, FaSSGF, read-out: Solubility of free base crystal form I", "result": 269, "unit": "µg/mL"}, {"measurement": "solubility at 2 h", "setting": "[3]; FaSSIF, 37 °C, fassif, FaSSIF, read-out: Solubility of free base crystal form I", "result": 247, "unit": "µg/mL"}, {"measurement": "solubility at 2 h", "setting": "[3]; FeSSCoF, 37 °C, fassgf or other biorelevant, FeSSCoF, read-out: Solubility of free base crystal form I", "result": 182, "unit": "µg/mL"}, {"measurement": "solubility at 2 h", "setting": "[3]; FeSSIF, 37 °C, fessif, FeSSIF, read-out: Solubility of free base crystal form I", "result": 311, "unit": "µg/mL"}, {"measurement": "solubility at 2 h", "setting": "[3]; USP buffer pH 1.0, 37 °C, pH 1, simulated gastric fluid, pH 1.0, read-out: Solubility of free base crystal form I", "result": 799, "unit": "µg/mL"}, {"measurement": "solubility at 2 h", "setting": "[3]; USP buffer pH 2.0, 37 °C, pH 2, simulated gastric fluid, pH 2.0, read-out: Solubility of free base crystal form I", "result": 141, "unit": "µg/mL"}, {"measurement": "solubility at 2 h", "setting": "[3]; USP buffer pH 3.0, 37 °C, pH 3, aqueous buffer, pH 3.0, read-out: Solubility of free base crystal form I", "result": 87, "unit": "µg/mL"}, {"measurement": "solubility at 2 h", "setting": "[3]; USP buffer pH 4.5, 37 °C, pH 4.5, aqueous buffer, pH 4.5, read-out: Solubility of free base crystal form I", "result": 80, "unit": "µg/mL"}, {"measurement": "solubility at 2 h", "setting": "[3]; USP buffer pH 6.8, 37 °C, pH 6.8, aqueous buffer, pH 6.8, read-out: Solubility of free base crystal form I", "result": 81, "unit": "µg/mL"}, {"measurement": "solubility at 2 h", "setting": "[3]; USP buffer, 37 °C, pH 4, aqueous buffer, pH 4.0, read-out: Solubility of free base crystal form I", "result": 73, "unit": "µg/mL"}, {"measurement": "solubility at 2 h", "setting": "[3]; USP buffer, 37 °C, pH 5, aqueous buffer, pH 5.0, read-out: Solubility of free base crystal form I", "result": 88, "unit": "µg/mL"}, {"measurement": "solubility at 2 h", "setting": "[3]; USP buffer, 37 °C, pH 6, aqueous buffer, pH 6.0, read-out: Solubility of free base crystal form I", "result": 70, "unit": "µg/mL"}, {"measurement": "solubility at 2 h", "setting": "[3]; USP buffer, 37 °C, pH 7, aqueous buffer, pH 7.0, read-out: Solubility of free base crystal form I", "result": 75, "unit": "µg/mL"}, {"measurement": "solubility at 2 h", "setting": "[3]; USP buffer, 37 °C, pH 8, aqueous buffer, pH 8.0, read-out: Solubility of free base crystal form I", "result": 58, "unit": "µg/mL"}, {"measurement": "solubility at 2 h", "setting": "[3]; water, 37 °C, water, H2O, read-out: Solubility of free base crystal form I", "result": 91, "unit": "µg/mL"}, {"measurement": "Tmax", "setting": "[4]; PO, 30MPK, 0.5%CMC-Na suspension", "result": 2.0, "unit": "h"}, {"measurement": "C0", "setting": "[4]; [7]", "result": 2910, "unit": "ng/mL"}, {"measurement": "clearance", "setting": "[4]; [7]", "result": 15, "unit": "mL/min/kg"}, {"measurement": "Vd", "setting": "[4]; Sprague-Dawley (SD), rat, 2 mg/kg, IV, 2MPK, 20%HP-B-CD solution, read-out: Vss", "result": 0.8, "unit": "L/kg"}, {"measurement": "Tmax", "setting": "[4]; Sprague-Dawley (SD), rat, 5 mg/kg, PO, 5MPK, 0.5%CMC-Na, read-out: tmax", "result": 0.5, "unit": "h"}, {"measurement": "AUC(0-inf)", "setting": "[4]; [8]", "result": 2280, "unit": "ng·h/mL"}, {"measurement": "AUC(0-t)", "setting": "[4]; [8]", "result": 2280, "unit": "ng·h/mL"}, {"measurement": "half-life", "setting": "[4]; [8]", "result": 0.9, "unit": "h"}, {"measurement": "MRT inf", "setting": "[4]; Sprague-Dawley (SD), rat, iv, 2 mg/kg, IV, 2MPK, 20%HP-B-CD solution", "result": 0.9, "unit": "h"}, {"measurement": "AUC(0-inf)", "setting": "[4]; [9]", "result": 2410, "unit": "ng·h/mL"}, {"measurement": "AUC(0-t)", "setting": "[4]; [9]", "result": 2390, "unit": "ng·h/mL"}, {"measurement": "Cmax", "setting": "[4]; [9]", "result": 787, "unit": "ng/mL"}, {"measurement": "bioavailability", "setting": "[4]; [9]", "result": 7, "unit": "%"}, {"measurement": "half-life", "setting": "[4]; [9]", "result": 1.2, "unit": "h"}, {"measurement": "MRT inf", "setting": "[4]; Sprague-Dawley (SD), rat, po, 5 mg/kg, PO, 5MPK, 0.5%CMC-Na", "result": 2.2, "unit": "h"}, {"measurement": "AUC(0-inf)", "setting": "[4]; [10]", "result": 31000, "unit": "ng·h/mL"}, {"measurement": "AUC(0-t)", "setting": "[4]; [10]", "result": 28400, "unit": "ng·h/mL"}, {"measurement": "Cmax", "setting": "[4]; [10]", "result": 6010, "unit": "ng/mL"}, {"measurement": "bioavailability", "setting": "[4]; [10]", "result": 90.4, "unit": "%"}, {"measurement": "half-life", "setting": "[4]; [10]", "result": 1.9, "unit": "h"}, {"measurement": "MRT inf", "setting": "[4]; Sprague-Dawley (SD), rat, po, 30 mg/kg, PO, 30MPK, 0.5%CMC-Na suspension", "result": 3.8, "unit": "h"}]}]}
